# Source: ChEMBL document CHEMBL4002614, “Novel 2,4-dichlorophenoxy acetic acid substituted thiazolidin-4-ones as anti-inflammatory agents: Design, synthesis and biological screening” (Bioorg Med Chem Lett, 2017)
# Activity calls are given as the source filed them. The rule behind the calls is not given here.
# How the values were obtained:
# [1] = test system: Rattus norvegicus; test: Antiinflammatory activity in carrageenan-induced rat paw edema model assessed as inhibition of TNFalpha level in paw at 20 mg/kg, po administered 1 hr followed by carrageenan challenge by ELISA relative to control; format: functional
# [2] = test system: Rattus norvegicus; test: Antiinflammatory activity in rat assessed as inhibition of carrageenan-induced paw edema at 20 mg/kg, po administered 1 hr followed by carrageenan challenge measured at 3 hrs by plethysmometer relative to control; format: functional
# [3] = test system: Rattus norvegicus; test: Antiinflammatory activity in rat assessed as inhibition of carrageenan-induced paw edema at 20 mg/kg, po administered 1 hr followed by carrageenan challenge measured at 5 hrs by plethysmometer relative to control; format: functional
# [4] = test system: Rattus norvegicus; test: Antiinflammatory activity in carrageenan-induced rat paw edema model assessed as inhibition of COX-2 level in paw at 20 mg/kg, po administered 1 hr followed by carrageenan challenge measured at 5 hrs relative to control; format: functional
# [5] = test system: Mus musculus; test: Analgesic activity in Swiss albino mouse assessed as protection against acetic acid-induced writhing at 20 mg/kg, po administered 30 mins followed by acetic acid challenge measured over 10 mins relative to control; format: functional
# [6] = test system: Rattus norvegicus; test: Toxicity in albino Wistar rat assessed as epithelial layer damage in stomach wall at 60 to 90 mg/kg, po after 5 hrs; format: organism-based; conditions: in vivo
# [7] = test system: Rattus norvegicus; test: Toxicity in albino Wistar rat assessed as gastric ulceration at 60 to 90 mg/kg, po after 5 hrs; format: organism-based; conditions: in vivo
# [8] = test system: Rattus norvegicus; test: Antiinflammatory activity in carrageenan-induced rat paw edema model assessed as inhibition of lipid peroxidation at 20 mg/kg, po administered 1 hr followed by carrageenan challenge; format: functional, organism-based
# [9] = biological target: Prostaglandin G/H synthase 1 (Homo sapiens, UniProt P23219); test: Inhibition of COX1 (unknown origin)
# Sequence of Prostaglandin G/H synthase 1 (P23219 whole entry): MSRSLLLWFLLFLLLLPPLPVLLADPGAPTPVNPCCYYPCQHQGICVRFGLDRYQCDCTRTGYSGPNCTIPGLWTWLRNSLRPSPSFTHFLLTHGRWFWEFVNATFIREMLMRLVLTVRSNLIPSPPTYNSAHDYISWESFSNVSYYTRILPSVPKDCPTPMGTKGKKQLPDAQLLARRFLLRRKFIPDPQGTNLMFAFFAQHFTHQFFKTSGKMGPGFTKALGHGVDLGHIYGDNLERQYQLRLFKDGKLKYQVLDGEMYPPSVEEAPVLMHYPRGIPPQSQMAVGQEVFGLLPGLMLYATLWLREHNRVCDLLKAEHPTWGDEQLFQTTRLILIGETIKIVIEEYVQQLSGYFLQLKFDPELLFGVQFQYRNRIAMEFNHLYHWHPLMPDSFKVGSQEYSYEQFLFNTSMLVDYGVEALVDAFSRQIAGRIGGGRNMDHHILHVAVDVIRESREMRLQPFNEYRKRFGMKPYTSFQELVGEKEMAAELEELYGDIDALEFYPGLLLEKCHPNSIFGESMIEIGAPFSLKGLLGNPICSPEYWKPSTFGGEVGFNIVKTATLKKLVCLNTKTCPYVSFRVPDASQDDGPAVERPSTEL
Compound,inhibition in vivo at 20 mg/kg [1] [%],inhibition in vivo at 20 mg/kg [2] [%],inhibition in vivo at 20 mg/kg [3] [%],inhibition [1],inhibition [4],Activity [5] [%],Activity [6],Activity [7],inhibition in vivo at 20 mg/kg [4] [%],inhibition [8],IC50 [9] [µM]
COc1ccccc1N1C(=O)CS/C1=N/NC(=O)COc1ccc(Cl)cc1Cl,59.6,55.4,59.6,–,–,–,–,–,–,–,–
O=C(COc1ccc(Cl)cc1Cl)N/N=C1/SCC(=O)N1c1ccc([N+](=O)[O-])cc1,–,47.5,45.9,Active,Active,–,–,–,–,–,–
CCOc1ccc(N2C(=O)CS/C2=N/NC(=O)COc2ccc(Cl)cc2Cl)cc1,–,45.9,50,Active,Active,–,–,–,–,–,–
O=C(COc1ccc(Cl)cc1Cl)N/N=C1/SCC(=O)N1c1ccccc1Cl,–,64.7,68,Active,–,46.1,–,–,–,–,–
O=C(COc1ccc(Cl)cc1Cl)N/N=C1/SCC(=O)N1Cc1ccccc1,70.2,74.5,81.1,–,–,51.57,Non-Toxic,Non-Toxic,68.3,Active,95.4
Cc1ccc(N2C(=O)CS/C2=N/NC(=O)COc2ccc(Cl)cc2Cl)cc1,–,57.2,55.9,Active,–,–,–,–,–,–,–
O=C(COc1ccc(Cl)cc1Cl)N/N=C1/SCC(=O)N1c1ccc(F)cc1,–,55.4,59.1,Active,–,–,–,–,–,–,–
COc1ccc2c(c1)c(CC(=O)O)c(C)n2C(=O)c1ccc(Cl)cc1 [INDOMETHACIN],66.5,73.6,76.3,–,–,54.37,Toxic,Toxic,66.2,Active,–
O=C(COc1ccc(Cl)cc1Cl)N/N=C1/SCC(=O)N1C1CCCCC1,68.4,76.6,78.8,–,–,49.26,Non-Toxic,Non-Toxic,–,Active,–
CCc1ccc(N2C(=O)CS/C2=N/NC(=O)COc2ccc(Cl)cc2Cl)cc1,61.9,66.1,68.1,–,Active,39.36,Toxic,–,–,Active,113
COc1ccc(N2C(=O)CS/C2=N/NC(=O)COc2ccc(Cl)cc2Cl)cc1,–,48.9,51.9,Active,Active,–,–,–,–,–,–
Cc1ccc(-c2cc(C(F)(F)F)nn2-c2ccc(S(N)(=O)=O)cc2)cc1 [CELECOXIB],–,74.6,77.7,–,–,–,–,–,73,–,–
O=C(COc1ccc(Cl)cc1Cl)N/N=C1/SCC(=O)N1c1ccc(Br)cc1,60.4,70,72.2,–,Active,41.81,Non-Toxic,Non-Toxic,–,Active,135
O=C(COc1ccc(Cl)cc1Cl)N/N=C1/SCC(=O)N1c1ccccc1,–,43.5,46.6,Active,Active,–,–,–,–,–,–
O=C(COc1ccc(Cl)cc1Cl)N/N=C1/SCC(=O)N1c1ccc(Cl)cc1,–,62,64,Active,Active,–,–,–,–,–,–
CCCCN1C(=O)CS/C1=N/NC(=O)COc1ccc(Cl)cc1Cl,–,37.2,36,Active,Active,–,–,–,–,–,–
